Data published in US10052320B2, “Substituted quinoxalines as FGFR kinase inhibitors” (ASTEX THERAPEUTICS LIMITED, priority 2011, dated 2018).
Where two headings read alike, the source gives them in different places.

Experiments:
FGFR2 (h) = FGFR2 (h) (Homo sapiens, UniProt P21802); assay: FGFR2 (enzymatic assay), TR-FRET; format: biochemical; settings: read-out: FGFR 2 pIC50 (converted)
Description: In a final reaction volume of 30 μL, FGFR2 (h) (150 ng/ml) was incubated with 50 mM HEPES pH 7.5, 6 mM MnCl2, 1 mM DTT, 0.1 mM Na3VO4, 0.01% Triton-X-100, 500 nM Btn-Flt3 and 0.4 μM ATP in the presence of compound (1% DMSO final). […] Time-Resolved Fluorescence Resonance Energy Transfer (TR-FRET) signal (ex340 nm. Em 620 nm, em 655 nm) was measured afterwards and results are expressed in (Relative Fluorescence Units).

[1] = molecular target: Ba/F3-KDR-transfected cells (Homo sapiens, UniProt P35968); assay: Ba/F3-KDR (minus IL3) cellular proliferation assay, Alamar Blue; format: cell-based
Description: Ba/F3-KDR (Minus IL3 or Plus IL3) (Cellular Proliferation Assay)
(§1) In a 384 well plate, 100 nl of compound dilution in DMSO was sprayed before adding 50 μl cell culture medium (phenol red free RPMI-1640, 10% FBS, 2 mM L-Glutamine and 50 μg/ml Gentamycin) containing 20000 cells per well of Ba/F3-KDR-transfected cells. Cells were put in an incubator at 37° C. and 5% CO2. After 24 hours, 10 μl of Alamar Blue solution (0.5 mM K3Fe(CN)6, 0.5 mM KaFe(CN)6, 0.15 mM Resazurin and 100 mM Phosphate Buffer) was added to the wells, incubated for 4 hours at 37° C. and 5% CO2 before RFU's (Relative Fluorescence Units) (ex. 540 nm., em. 590 nm.) were measured in a flurorescence plate reader.
(§2) As a counterscreen the same experiment was performed in the presence of 10 ng/ml murine IL3.
as §1, with “a 96” for “a 384”, “plate, 180” for “plate, 100 nl of compound dilution in DMSO was sprayed before adding 50”, “containing 10000” for “containing 20000”, “Ba/F3-KDR-transfected cells were pipette and 20 μl of compound dilution in DMSO was added.” for “Ba/F3-KDR-transfected cells.”, “hours, 40” for “hours, 10”, “CO2” for “CO2 before”

[2] = system: Ba/F3-Flt3-transfected cells in the presence of 10 ng/ml murine IL3; assay: Ba/F3-Flt3 (plus IL3) cellular proliferation counterscreen, Alamar Blue; format: cell-based; settings: for IC50: Mus musculus, read-out: BAF3-FLT3 (PLUS IL3) 384 well pIC50 (converted)
Description: Ba/F3-Flt3 (Minus IL3 or Plus IL3) (Cellular Proliferation Assay)
as §1, with “Ba/F3-Flt3-transfected” for “Ba/F3-KDR-transfected”
as §2
as §1, with “a 96” for “a 384”, “plate, 180” for “plate, 100 nl of compound dilution in DMSO was sprayed before adding 50”, “containing 10000” for “containing 20000”, “of Ba/F3-Flt3-transfected cells were pipette and 20 μl of compound dilution in DMSO was added.” for “of Ba/F3-KDR-transfected cells.”, “hours, 40” for “hours, 10”

Ba/F3-KDR-transfected cells, sequence (P35968 whole entry, change not shown): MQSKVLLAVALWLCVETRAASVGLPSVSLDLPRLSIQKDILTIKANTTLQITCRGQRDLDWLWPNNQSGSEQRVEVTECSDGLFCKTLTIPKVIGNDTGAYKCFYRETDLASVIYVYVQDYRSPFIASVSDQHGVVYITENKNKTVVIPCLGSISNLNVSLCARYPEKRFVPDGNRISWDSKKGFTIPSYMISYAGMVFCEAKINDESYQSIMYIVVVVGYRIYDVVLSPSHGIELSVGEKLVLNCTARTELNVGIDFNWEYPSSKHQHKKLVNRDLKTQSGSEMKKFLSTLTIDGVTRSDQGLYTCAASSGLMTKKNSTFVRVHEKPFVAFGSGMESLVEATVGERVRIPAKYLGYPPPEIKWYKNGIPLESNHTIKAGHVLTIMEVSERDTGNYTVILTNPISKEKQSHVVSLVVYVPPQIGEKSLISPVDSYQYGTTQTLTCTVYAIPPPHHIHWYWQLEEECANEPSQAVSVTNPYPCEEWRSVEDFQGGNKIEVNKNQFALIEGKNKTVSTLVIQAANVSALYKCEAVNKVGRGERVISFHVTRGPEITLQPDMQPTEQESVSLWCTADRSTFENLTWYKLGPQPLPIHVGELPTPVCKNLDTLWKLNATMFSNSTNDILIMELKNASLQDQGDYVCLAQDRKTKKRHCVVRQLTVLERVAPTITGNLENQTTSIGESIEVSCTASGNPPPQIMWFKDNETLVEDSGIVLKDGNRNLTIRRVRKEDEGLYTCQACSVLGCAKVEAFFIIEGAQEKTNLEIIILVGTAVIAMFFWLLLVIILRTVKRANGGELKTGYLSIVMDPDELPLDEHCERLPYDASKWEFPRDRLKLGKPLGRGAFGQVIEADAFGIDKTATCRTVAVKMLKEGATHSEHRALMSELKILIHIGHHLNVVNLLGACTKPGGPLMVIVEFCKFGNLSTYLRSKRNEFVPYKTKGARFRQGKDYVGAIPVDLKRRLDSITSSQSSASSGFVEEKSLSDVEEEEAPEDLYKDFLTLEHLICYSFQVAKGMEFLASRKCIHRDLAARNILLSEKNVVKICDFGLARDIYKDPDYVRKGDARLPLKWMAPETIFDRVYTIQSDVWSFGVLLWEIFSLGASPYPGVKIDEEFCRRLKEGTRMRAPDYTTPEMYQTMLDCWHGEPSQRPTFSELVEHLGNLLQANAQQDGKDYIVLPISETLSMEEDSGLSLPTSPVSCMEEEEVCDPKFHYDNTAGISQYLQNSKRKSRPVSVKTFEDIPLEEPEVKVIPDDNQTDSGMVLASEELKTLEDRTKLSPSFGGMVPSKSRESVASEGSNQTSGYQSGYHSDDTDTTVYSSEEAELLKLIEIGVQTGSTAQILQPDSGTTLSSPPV
FGFR2 (h), sequence (P21802 22-821): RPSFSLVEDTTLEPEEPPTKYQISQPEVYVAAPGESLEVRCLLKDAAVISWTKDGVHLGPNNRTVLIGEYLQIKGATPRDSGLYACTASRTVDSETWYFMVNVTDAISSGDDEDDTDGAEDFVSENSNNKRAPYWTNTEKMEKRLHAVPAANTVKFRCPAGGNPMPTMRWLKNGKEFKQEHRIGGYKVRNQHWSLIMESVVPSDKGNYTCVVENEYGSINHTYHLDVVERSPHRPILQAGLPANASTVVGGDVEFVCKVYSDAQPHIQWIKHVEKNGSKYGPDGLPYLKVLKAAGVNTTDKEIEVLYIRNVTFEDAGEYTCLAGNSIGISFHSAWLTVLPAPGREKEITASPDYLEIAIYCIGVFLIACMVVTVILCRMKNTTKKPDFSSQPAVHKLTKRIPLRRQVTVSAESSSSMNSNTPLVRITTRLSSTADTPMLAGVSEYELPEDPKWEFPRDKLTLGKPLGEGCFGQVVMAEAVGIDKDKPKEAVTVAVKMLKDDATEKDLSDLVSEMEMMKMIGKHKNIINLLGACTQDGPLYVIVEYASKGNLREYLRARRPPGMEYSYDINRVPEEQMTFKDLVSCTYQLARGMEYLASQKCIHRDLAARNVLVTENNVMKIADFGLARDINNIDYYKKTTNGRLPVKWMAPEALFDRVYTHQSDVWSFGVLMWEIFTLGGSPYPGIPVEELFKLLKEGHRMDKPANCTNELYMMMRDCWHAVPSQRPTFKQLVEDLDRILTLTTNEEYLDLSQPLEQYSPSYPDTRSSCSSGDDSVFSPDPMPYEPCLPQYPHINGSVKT

Row | SMILES | IC50 (FGFR2 (h)) | BAF3-KDR (MIN IL3) 384 well pIC50 ([1]; minus IL3) | BAF3-KDR (MIN IL3) 384 well pIC50 ([1]; minus IL3, 384 well) | IC50 ([2]; plus 10 ng/ml murine IL3) | BAF3-FLT3 (PLUS IL3) 384 well pIC50 ([2]; plus 10 ng/ml murine IL3) | IC50 ([2]; plus IL3, 384 well)
1 | COc1cc(OC)cc(N(CCCNCC(F)(F)F)c2ccc3ncc(-c4ccnc(C(=O)NCCCN)c4)nc3c2)c1 [Compound 148] | 58.9 nM | <5 |  | > 10 µM |  | 
2 | COc1cc(OC)cc(N(CCCNC(C)C)c2ccc3ncc(-c4ccnc(NC(=O)NC(C)C)c4)nc3c2)c1 [Compound 131] | 4.68 nM | 5.37 |  | 3.63 µM |  | 
3 | COc1cc(OC)cc(N(CCO)c2ccc3ncc(-c4ccnc(C(=O)NCCCCCO)c4)nc3c2)c1 [Compound 139] | 39.8 nM | <5 |  | > 10 µM |  | 
4 | COc1cc(OC)cc(N(CCO)c2ccc3ncc(C4=CCN(C(=O)OC(C)(C)C)CC4)nc3c2)c1 [Compound 178] | 12.3 nM | <5 |  | > 10 µM |  | 
5 | COc1cc(OC)cc(N(CCN2CCOCC2)c2ccc3ncc(-c4ccc(N)nc4)nc3c2)c1 [Compound 169] | 15.8 nM | 5.1 |  | > 10 µM |  | 
6 | COc1cc(OC)cc(N(CCCNCCCO)c2ccc3ncc(-c4ccnc(C(=O)NCCCCN)c4)nc3c2)c1 [Compound 132] | 8.71 nM | 5.04 |  | ~5.5 µM |  | 
7 | COCC(CN(c1cc(OC)cc(OC)c1)c1ccc2ncc(-c3cccnc3)nc2c1)OC(C)=O (single isomer, unassigned) [Compound 76] | 20 nM | <5 |  |  | <5 | 
8 | COc1cc(OC)cc(N(CCNC(C)C)c2ccc3ncc(C(=O)N4CCN(C)CC4)nc3c2)c1 [Compound 179] | 427 nM | <5 |  | > 10 µM |  | 
9 | COc1cc(OC)cc(N(CCO)c2ccc3ncc(/C(C)=N/OC(C)(C)C)nc3c2)c1 [Compound 171] | 724 nM | <5 |  | > 10 µM |  | 
10 | COc1cc(OC)cc(N(CCO)c2ccc3ncc(-c4ccc(N5CCOCC5)nc4)nc3c2)c1 [Compound 19] | 10.7 nM | <5 |  | > 10 µM |  | 
11 | COCC(CN(c1cc(OC)cc(OC)c1)c1ccc2ncc(-c3cccnc3)nc2c1)OC(C)=O (single isomer, unassigned) [Compound 52] | 91.2 nM | <5 |  | > 10 µM |  | 
12 | COc1cc(OC)cc(N(CCO)c2ccc3ncc(C(=O)Nc4cnn(C)c4)nc3c2)c1 [Compound 184] | 155 nM | <5 |  | > 10 µM |  | 

Second part, led by results:

Row | IC50 (FGFR2 (h)) | BAF3-KDR (MIN IL3) 384 well pIC50 ([1]; minus IL3) | BAF3-KDR (MIN IL3) 384 well pIC50 ([1]; minus IL3, 384 well) | SMILES | IC50 ([2]; plus 10 ng/ml murine IL3) | BAF3-FLT3 (PLUS IL3) 384 well pIC50 ([2]; plus 10 ng/ml murine IL3) | IC50 ([2]; plus IL3, 384 well)
13 | 25.7 nM | <5 |  | COc1cc(OC)cc(N(CCO)c2ccc3ncc(-n4cnc(CO)c4)nc3c2)c1 [Compound 38] | > 10 µM |  | 
14 | > 10000 nM | <5 |  | COc1cc(OC)cc(N(CC2CC2)c2ccc3ncc(C(=O)N4CCC4)nc3c2)c1 [Compound 93] | > 10 µM |  | 
15 | 11 nM | <5 |  | COc1cc(OC)cc(N(CCCNCC(=O)O)c2ccc3ncc(-c4ccnc(C(=O)NCCCCN)c4)nc3c2)c1 [Compound 44] | > 10 µM |  | 
16 | 398 nM | <5 |  | COc1cc(OC)cc(N(CC2CC2)c2ccc3ncc(N4CCN(CCO)CC4)nc3c2)c1 [Compound 49] | > 10 µM |  | 
17 | 102 nM | <5 |  | COc1cc(OC)cc(N(CCCO)c2ccc3ncc(-c4cccnc4F)nc3c2)c1 [Compound 149] | > 10 µM |  | 
18 | 6.31 nM | 5 |  | COc1cc(OC)cc(N(CCNC(C)C)c2ccc3ncc(N4CCC(CN)CC4)nc3c2)c1 [Compound 67] | > 10 µM |  | 
19 | 57.5 nM | <5 |  | COc1cc(OC)cc(N(CCNC(C)C)c2ccc3ncc(C(=O)NCCN4CCOCC4)nc3c2)c1 [Compound 160] | > 10 µM |  | 
20 | ~85.1 nM | <5 |  | COc1cc(OC)cc(N(CCCNCC(F)(F)F)c2ccc3ncc(-c4ccnc(F)c4)nc3c2)c1 [Compound 144] | > 10 µM |  | 
21 | 3.98 nM | <5 |  | COc1cc(OC)cc(N(CCNC(C)C)c2ccc3ncc(-c4ccc(N5CCN(C)CC5)nc4)nc3c2)c1 [Compound 170] | 5.01 µM |  | 
22 | 3.39 nM | 5.33 |  | COc1cc(OC)cc(N(CCCNC(C)C)c2ccc3ncc(-c4ccnc(N)c4)nc3c2)c1 [Compound 143] | 6.61 µM |  | 
23 | 25.1 nM | <5 |  | COc1cc(OC)cc(N(CCCO)c2ccc3ncc(-c4ccnc(F)c4)nc3c2)c1 [Compound 142] | > 10 µM |  | 
24 | 490 nM | <5 |  | COc1cc(OC)cc(N(CCNC(C)C)c2ccc3ncc(C(=O)N4CCOCC4)nc3c2)c1 [Compound 181] | > 10 µM |  | 
25 | 12.6 nM | 5.36 |  | COc1cc(OC)cc(N(CCO)c2ccc3ncc(-c4ccc(N5CCNCC5)nc4)nc3c2)c1 [Compound 165] | ~5.75 µM |  | 
26 | 3.72 nM | 5.75 |  | COc1cc(OC)cc(N(CCNC(C)C)c2ccc3ncc(-c4ccc(N5CCOCC5)nc4)nc3c2)c1 [Compound 168] | ~8.32 µM |  | 
27 | 17.4 nM | <5 |  | COCC(O)CN(c1cc(OC)cc(OC)c1)c1ccc2ncc(-c3cccnc3)nc2c1 (single isomer, unassigned) [Compound 47] |  | <5 | 
28 | 741 nM |  | <5 | COc1cc(OC)cc(N(CC2CC2)c2ccc3ncc(N4CCOCC4)nc3c2)c1 [Compound 63] |  |  | > 10 µM
29 | 66.1 nM | <5 |  | COc1cc(OC)cc(N(CCNC(C)C)c2ccc3ncc(C(=O)NCCCN4CCN(C)CC4)nc3c2)c1 [Compound 159] | > 10 µM |  | 
